The assay deals with T1, CLOCK and BMAL1 (Mus musculus, UniProt O08785+Q9WTL8).
T1 construct: from tissue; host or cells: liver of C57BL/6J mice
Nature of the assay: Subcellular fractionation from mice liver. As to conditions: in vivo and in vitro. Set-up: species or system mice (C57BL/6J). The protocol: 8-12 weeks old male C57BL/6J mice were used for in vivo studies. Mice weighing 24-28 grams were subjected to a single dose of CLK95 (50 mg/kg) or vehicle (DMSO:Cremophor EL: 0.9% NaCl; 2.5:15:82.5, v/v/v) intraperitoneally. Animals which were obtained from Koç University Animal Research Facility were fed ad libitum. Four hours after treatment, animals were sacrificed, and the internal organs were harvested.
Subcellular fractionation from mice liver was performed by using 10 mg tissue sample. Buffers that were used in this process are same as in given in section 3.13. First, the tissue was washed in 500 μL ice-cold 1×PBS buffer and then resuspended in 300 μL cytosolic lysis buffer by pipetting and incubated on ice for 10 min. Samples were centrifuged at 660×g for 5 minutes (4° C.) to get rid of cell debris. While supernatants were collected and transferred to new microcentrifuge tubes for processing later to give cytosolic fractions, pellets containing intact nucleus were washed 3 times with 300 μL cytosolic lysis buffer. At the end of each wash, suspensions were centrifugated for 5 minutes at 660×g (4° C.). […] Samples were analysed with Western blot as described earlier using anti-CLOCK (Bethyl, A302-618A), anti-BMAL1 (Santa Cruz Biotech., SC-365645), anti-CRY1 (Bethyl, A302-614A), anti-Histone H3 (Abcam, ab1791), and anti-αTUBULIN (Sigma-Aldrich, T9026) antibodies were used.

With `CC1(c2ccc3ccccc3c2)NC(=O)N(CC(=O)Nc2nc(-c3ccc4c(c3)CCC4)cs2)C1=O` (stereo not shown) [CLK95], the “translocation of CLOCK and BMAL1 into the nucleus” value was “interfering with the translocation of CLOCK and BMAL1 into the nucleus both in vivo and in vitro”.

Values taken from patent US20250275948A1, “(N-[4-(2,3-DIHYDRO-1H-INDEN-5-YL)-1,3-THIAZOL-2-YL]-2-[4-METHYL-4-(NAPHTHALEN-2-YL)-2,5-DIOXOIMIDAZOLIDIN-1-YL]ACETAMIDE AS STABILIZER OF CLOCK:BMAL1 INTERACTION FOR THE TREATMENT OF CIRCADIAN RHYTHM DISEASES AND DISORDERS” (KOC UNIVERSITESI, priority 2022, published 2025).
